Test [1] concerns the target T1, JAK3 enzyme (Homo sapiens, UniProt P52333).
T1 sequence (P52333 1-1124): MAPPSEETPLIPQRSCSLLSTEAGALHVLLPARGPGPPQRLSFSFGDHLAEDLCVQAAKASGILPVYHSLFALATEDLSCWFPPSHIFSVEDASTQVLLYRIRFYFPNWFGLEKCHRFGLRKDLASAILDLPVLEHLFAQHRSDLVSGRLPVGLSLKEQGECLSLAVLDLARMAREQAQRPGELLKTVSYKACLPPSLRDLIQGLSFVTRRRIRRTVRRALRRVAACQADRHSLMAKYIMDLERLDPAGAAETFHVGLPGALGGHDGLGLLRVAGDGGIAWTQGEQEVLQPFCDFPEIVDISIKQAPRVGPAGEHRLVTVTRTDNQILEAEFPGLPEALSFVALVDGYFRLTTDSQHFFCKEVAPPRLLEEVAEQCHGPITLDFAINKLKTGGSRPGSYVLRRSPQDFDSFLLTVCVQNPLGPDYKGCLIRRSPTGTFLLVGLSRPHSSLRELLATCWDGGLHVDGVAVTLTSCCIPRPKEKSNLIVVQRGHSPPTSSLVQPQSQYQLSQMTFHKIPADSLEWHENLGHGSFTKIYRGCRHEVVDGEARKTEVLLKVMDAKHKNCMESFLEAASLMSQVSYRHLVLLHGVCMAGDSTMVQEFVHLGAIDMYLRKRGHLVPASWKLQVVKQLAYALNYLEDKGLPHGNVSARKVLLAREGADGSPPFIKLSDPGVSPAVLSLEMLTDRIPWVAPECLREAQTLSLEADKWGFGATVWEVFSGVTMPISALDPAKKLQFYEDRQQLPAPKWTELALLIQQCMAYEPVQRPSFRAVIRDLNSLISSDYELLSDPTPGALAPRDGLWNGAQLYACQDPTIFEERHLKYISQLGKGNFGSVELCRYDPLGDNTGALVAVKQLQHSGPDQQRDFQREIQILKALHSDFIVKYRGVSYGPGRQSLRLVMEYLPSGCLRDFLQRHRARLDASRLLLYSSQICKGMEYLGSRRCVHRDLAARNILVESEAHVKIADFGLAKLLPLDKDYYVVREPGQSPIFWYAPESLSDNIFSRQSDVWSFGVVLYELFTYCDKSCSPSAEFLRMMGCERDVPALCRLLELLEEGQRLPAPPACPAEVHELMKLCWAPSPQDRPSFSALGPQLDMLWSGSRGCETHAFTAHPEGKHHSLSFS
Nature of the test: JAK Caliper Enzyme Assay at 4 μM ATP. Format: biochemical. The method, boiled down:
(§1)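 First, compound stocks in DMSO were serially diluted half-log over 11 points, starting at 600 μM. Next, reactions ran with batch-optimized enzyme and timing targeting 20%-30% phosphorylation. Finally, wells were sampled and product separated from substrate peptide electrophoretically.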

In test [2] the target is T1, JAK3 enzyme. The test can be described thus: JAK Caliper Enzyme Assay at 1 mM ATP. Format: biochemical. The method, boiled down: as §1
In test [3] the test system is IL-15 induced STAT5 phosphorylation in human whole blood lymphocytes. Nature of the test: HWB IL-15 Induced STAT5 Phosphorylation Assay. Format: cell-based. The note with it: Lymphocyte, IL-15 final 50 ng/ml, read-out: HWB_IL15 pSTAT5 IC50. The protocol:
HWB IL-15 Induced STAT5 Phosphorylation Assay
After serial dilution of the test compounds 1:2 in DMSO at desired concentration (500× of final), the compounds were further diluted in PBS (by adding 4 μL compound/DMSO in 96 μL PBS, [DMSO]=4%, 20× final). To 96-well polypropylene plates were added 90 μl HWB (heparin treated Human Whole Blood)/well, followed by 5 μl/well 4% DMSO in D-PBS or various concentrations of 20× inhibitor in 4% DMSO in D-PBS (w/o Ca^+2 or Mg^+2) to give 1× in 0.2% DMSO. After mixing and incubating for 45 minutes at 37° C., 5 μl D-PBS (unstimulated control) or 20× stocks of 5 μl human IL-15 (final concentration is 50 ng/ml) were added, and mixed three times. After incubating 15 minutes at 37° C., 1× Lyse/Fix Buffer (BD Phosflow 5× Lyse/Fix Buffer) was added to all wells at 1000 μl/well, then incubated for 20 minutes at 37° C. and spun 5 mins at 1200 rpm. After washing in 1000 μl FACS buffer 1× and spinning for 5 mins at 1200 rpm, 400 μl ice cold Perm Buffer III were added to each well. After mixing gently (1-2×) and incubating on ice for 30 minutes, spinning for 5 mins at 1200 rpm without interruption, and washing 1× in cold […] FACS buffer (D-PBS containing 0.1% BSA and 0.1% sodium azide) 250 μl/well of the desired AlexaFluor647-conjugated anti-phospho STATS antibody at 1:125 dilution in FACS buffer was added. Following incubating at 4° C. over night, all the samples were transferred to 96-well polypropylene U-bottom plate, and checked by flow cytometry gated on total lymphocytes.

The subject of test [4] is IL-15 induced P-STAT5 in human PBMC. The test can be described thus: PBMC IL-15 Induced P-STAT5. It counts as cell-based. The note with it: human PBMC, IL-15 final 41 ng/mL; read-out: PBMC IL15_pSTAT5_IC50. The method, boiled down: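 Thawed human PBMC, rested in human plasma, were preincubated 15 min at 37 °C with compound (0.2% DMSO), then stimulated 15 min with IL-15 at 41 ng/mL final. After paraformaldehyde fixation and methanol permeabilisation, Alexa Fluor 647 anti-STAT5 staining overnight at 4 °C was analysed by flow cytometry on total lymphocytes.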

For `C=CC(=O)N1CCN(c2cnc3[nH]cc(C(=O)NC4CCC4)c3n2)CC1` [Example 297, 2-(4-acryloylpiperazin-1-yl)-N-cyclobutyl-5H-pyrrolo[2,3-b]pyrazine-7-carboxamide], the IC50 was found to be 0.43 nM in test [1], 45 nM in test [2], 718 nM in test [3] and 150 nM in test [4].
The like results for `C=CC(=O)N1CC[C@@H](Nc2cnc3[nH]cc(C(=O)N[C@@H](C)COC)c3n2)[C@@H](OC)C1` [Example 312, 2-{[(3S,4R)-1-acryloyl-3-methoxypiperidin-4-yl]amino}-N-[(2S)-1-methoxypropan-2-yl]-5H-pyrrolo[2,3-b]pyrazine-7-carboxamide] were, in that order, 1.05 nM, 56 nM, 704 nM and 310 nM.
The like results for `C=CC(=O)N1CCC(Nc2cnc3[nH]cc(C(=O)NCc4ccc(Cl)cn4)c3n2)CC1` [Example 186, 2-[(1-acryloylpiperidin-4-yl)amino]-N-[(5-chloropyridin-2-yl)methyl]-5H-pyrrolo[2,3-b]pyrazine-7-carboxamide] were, in that order, 0.485 nM, 15 nM, 870 nM and 213 nM.
The like results for `C=CC(=O)N1CCC(Nc2cnc3[nH]cc(C(=O)NCc4cc(C(C)C)no4)c3n2)CC1` [Example 175, 2-[(1-acryloylpiperidin-4-yl)amino]-N-{[3-(propan-2-yl)-1,2-oxazol-5-yl]methyl}-5H-pyrrolo[2,3-b]pyrazine-7-carboxamide] were, in that order, 0.426 nM, 8 nM, 1320 nM and 77.3 nM.
In the case of `C=CC(=O)N1CCN(c2cnc3[nH]cc(C(=O)NCC(C)(C)C)c3n2)CC1` [Example 304, 2-(4-acryloylpiperazin-1-yl)-N-(2,2-dimethylpropyl)-5H-pyrrolo[2,3-b]pyrazine-7-carboxamide], the IC50 was 0.194 nM in test [1], 29 nM in test [2], 524 nM in test [3] and 96.8 nM in test [4].
The like results for `C=CC(=O)N1CCN(c2cnc3[nH]cc(C(=O)NCC(C)(C)C)c3n2)C[C@@H]1CC(C)C` [Example 330, 2-[(3S)-4-acryloyl-3-(2-methylpropyl)piperazin-1-yl]-N-(2,2-dimethylpropyl)-5H-pyrrolo[2,3-b]pyrazine-7-carboxamide] were, in that order, 0.287 nM, 45 nM, 1970 nM and 122 nM.
The like results for `C=CC(=O)N1CCN(c2cnc3[nH]cc(C(=O)NC[C@H](C)CC(F)(F)F)c3n2)CC1` [Example 336, 2-(4-acryloylpiperazin-1-yl)-N-[(2R)-4,4,4-trifluoro-2-methylbutyl]-5H-pyrrolo[2,3-b]pyrazine-7-carboxamide] were, in that order, 0.24 nM, 26 nM, 373 nM and 107 nM.
Regarding `C=CC(=O)N1CC[C@H](Nc2cnc3[nH]cc(C(=O)NCCC(F)(F)F)c3n2)[C@H](OC)C1` [Example 305, 2-{[(3R,4S)-1-acryloyl-3-methoxypiperidin-4-yl]amino}-N-(3,3,3-trifluoropropyl)-5H-pyrrolo[2,3-b]pyrazine-7-carboxamide], the IC50 in test [1] is 0.496 nM; in test [2], 53 nM; in test [3], 6380 nM; in test [4], 278 nM.
For `C=CC(=O)N1CCN(c2cnc3[nH]cc(C(=O)NC4CC(F)(F)C4)c3n2)CC1` [Example 283, 2-(4-acryloylpiperazin-1-yl)-N-(3,3-difluorocyclobutyl)-5H-pyrrolo[2,3-b]pyrazine-7-carboxamide] the same measures were 0.509 nM, 97 nM, 1200 nM and 257 nM.
With `C=CC(=O)N1CCN(c2cnc3[nH]cc(C(=O)NC4CCCC4)c3n2)CC1(C)C` [Example 334, 2-(4-acryloyl-3,3-dimethylpiperazin-1-yl)-N-cyclopentyl-5H-pyrrolo[2,3-b]pyrazine-7-carboxamide], the IC50 in test [1] turned out to be 0.703 nM; in test [2] it was 93 nM; in test [3] it was 3920 nM; in test [4], 73.6 nM.
As to `C=CC(=O)N1CCC(Nc2cnc3[nH]cc(C(=O)NCc4ccc(F)c(OC)c4)c3n2)CC1` [Example 174, 2-[(1-acryloylpiperidin-4-yl)amino]-N-(4-fluoro-3-methoxybenzyl)-5H-pyrrolo[2,3-b]pyrazine-7-carboxamide], the IC50 in test [1] was 0.368 nM; in test [2], 13 nM; in test [3], 1730 nM; in test [4] it was 162 nM.
For `C=CC(=O)N1CCC(Nc2cnc3[nH]cc(C(=O)NCc4sc(C)nc4C(F)(F)F)c3n2)CC1` [Example 195, 2-[(1-acryloylpiperidin-4-yl)amino]-N-{[2-methyl-4-(trifluoromethyl)-1,3-thiazol-5-yl]methyl}-5H-pyrrolo[2,3-b]pyrazine-7-carboxamide] the same measures were 0.494 nM, 7 nM, 688 nM and 82.7 nM.
For `C=CC(=O)N1CCC(Nc2cnc3[nH]cc(C(=O)NCc4ccc(OC)cc4)c3n2)CC1` [Example 191, 2-[(1-acryloylpiperidin-4-yl)amino]-N-(4-methoxybenzyl)-5H-pyrrolo[2,3-b]pyrazine-7-carboxamide] the same measures were 0.484 nM, 9 nM, 778 nM and 137 nM.
For `C=CC(=O)N1CC[C@@H](Nc2cnc3[nH]cc(C(=O)NC4CCCC4)c3n2)[C@@H](OC)C1` (racemic) [Example 299, Racemic-2-{[(3S,4R)-1-acryloyl-3-methoxypiperidin-4-yl]amino}-N-cyclopentyl-5H-pyrrolo[2,3-b]pyrazine-7-carboxamide] the same measures were 1.21 nM, 57 nM, 913 nM and 305 nM.
`C=CC(=O)N1CCN(c2cnc3[nH]cc(C(=O)NCCC(F)(F)F)c3n2)C[C@@H]1CC(C)C` [Example 329, 2-[(3S)-4-acryloyl-3-(2-methylpropyl)piperazin-1-yl]-N-(3,3,3-trifluoropropyl)-5H-pyrrolo[2,3-b]pyrazine-7-carboxamide]: the IC50 in test [1] came to 0.587 nM; in test [2], 60 nM; in test [3], 6290 nM; in test [4], 247 nM.
